{"source": "patent US10016486B1", "about": "“Methods and compositions using AMPK activators for pharmacological prevention of chronic pain” (ARIZONA BOARD OF REGENTS ON BEHALF OF THE UNIVERSITY OF …, priority 2013, dated 2018)", "key": {"[1]": {"test_system": "neuropathic allodynia induced by peripheral nerve injury", "conditions": "previously demonstrated; cited from earlier work"}, "[2]": {"test_system": "Male ICR mice", "assay": "Plantar incision model: acute mechanical hypersensitivity (paw withdrawal thresholds, von Frey filaments)", "type": "in vivo", "procedure": "(§1) Behavior testing: For the testing, animals were placed in acrylic boxes with wire mesh floors and allowed to habituate for approximately 1 h on all testing days. Paw withdrawal thresholds were measured using calibrated von Frey filaments (Stoelting, Wood Dale, Ill.) by stimulating the plantar aspect of left hind paw using the up-down method (Chaplan et al., 1994). Plantar incision and behavioral testing: Prior to surgery all animals were assessed for paw withdrawal thresholds. A mouse model of incisional pain was used for this study (Banik et al., 2006). […] Sham controls underwent the same procedure but without the incision. The skin was apposed with 2 sutures of […]. […] The paw withdrawal thresholds were again measured at 1 h, 3 h and 24 h following the PGE2 injection. Statistical Analysis and Data Presentation: Data are shown as means and the standard error of the mean (±SEM) of 6 animals (for behavioral studies). Graph plotting and statistical analysis used Graphpad Prism Version 5.03 (Graph Pad Software, Inc. San Diego, Calif., USA). Statistical evaluation was performed by one- or two-way analysis of variance (ANOVA), followed by appropriate post-hoc tests. The a priori level of significance at 95% confidence level was considered at p<0.05."}, "[3]": {"test_system": "Male ICR mice", "assay": "Plantar incision model: hyperalgesic priming precipitated by intraplantar PGE2 on day 14", "type": "in vivo", "procedure": "as §1"}, "[4]": {"test_system": "translation regulation signaling pathways and nascent protein synthesis in injured nerves neurons", "conditions": "previously demonstrated; cited from earlier work"}, "[5]": {"test_system": "AMPK", "conditions": "independent of upstream kinase LKB1; Lee et al., 2011; read-out: EC50, stimulation of AMPK kinase activity through direct activation; cited from earlier work"}, "[6]": {"test_system": "Male ICR mice", "assay": "Wound healing and wound closure after plantar incision (H & E staining)", "conditions": "maximal doses (resveratrol 10 μg intraplantar, metformin 200 mg/kg i.p., OSU53 10 or 30 μg intraplantar); for wound size vs vehicle treated group: Day 3 after plantar incision; for wound closure: Day 7 after plantar incision", "protocol": "Experimental animals: Male ICR mice (Harlan, 20-25 g) were used for the study.\nImmunohistochemistry: To determine re-epithelialization, plantar skin was excised from the left hind paw of mice either 3 days or 7 days following plantar incision surgery. The skin was immediately cryoprotected and frozen in O.C.T compound and sectioned (20 μm) on cryostat. The sections were then fixed in formalin and immersed in 0.1% hematoxylin for 3 minutes, washed in tap water, then immersed in 0.1% eosin for 3 minutes, and dehydrated through graded ethanol (Protocol from University of Michigan Center for Organogenesis). Finally sections were coverslipped with Permount (Fisher, Pittsburgh, Pa.). The sections were imaged and the width between 2 epithelial edges was measured using Olympus BX51 microscope."}, "[7]": {"test_system": "Male ICR mice", "conditions": "local injection of resveratrol into the hind paw following plantar incision; previously demonstrated; cited from earlier work"}, "[8]": {"test_system": "ERK and mTOR signaling in sensory neurons", "conditions": "time- and concentration-dependent; previously demonstrated; cited from earlier work"}, "[9]": {"conditions": "general statement; cited from earlier work"}, "[10]": {"test_system": "Male ICR mice", "conditions": "local injection of resveratrol into the hind paw following plantar incision; previously demonstrated; cited from earlier work", "remark": "listed apart in the source"}, "[11]": {"conditions": "OSU53 10 or 30 μg injected locally into the hind paw around the incision"}, "[12]": {"conditions": "metformin lower doses (30, 100, 150) intra-peritoneal for 4 days starting 2 days prior to surgery"}, "[13]": {"conditions": "metformin maximal dose 200 mg/kg intra-peritoneal for 4 days starting 2 days prior to surgery"}}, "note": "“Also recorded” adds a separate entry of the source.", "data": [{"smiles": "N#Cc1c(O)c2c(-c3ccc(-c4ccccc4O)cc3)csc2[nH]c1=O", "note": "[A-769662]", "values": [{"measurement": "neuropathic allodynia induced by peripheral nerve injury", "setting": "[1]", "result": "resolution of neuropathic allodynia"}, {"measurement": "plantar incision-induced acute mechanical hypersensitivity", "setting": "[2]; A-769662 30 mg/kg intra-peritoneal for 4 days starting 2 days prior to surgery, 30 mg/kg", "result": "did not block; also recorded: not effective"}, {"measurement": "hyperalgesic priming following PGE2 injection on day 14", "setting": "[3]; A-769662 30 mg/kg intra-peritoneal for 4 days starting 2 days prior to surgery", "result": "significantly blocked"}, {"measurement": "translation regulation signaling pathways and nascent protein synthesis in injured nerves neurons", "setting": "[4]", "result": "inhibited"}]}, {"smiles": "CC1(CN2C(=O)S/C(=C\\c3ccc(NS(=O)(=O)c4ccc([N+](=O)[O-])c(C(F)(F)F)c4)cc3)C2=O)CCCCC1", "note": "[OSU53]", "values": [{"measurement": "EC50", "setting": "[5]", "result": 300, "unit": "nM"}, {"measurement": "plantar incision-induced acute mechanical hypersensitivity", "setting": "[2]; [11]", "result": "significantly blocked; also recorded: dose-relatedly blocked"}, {"measurement": "hyperalgesic priming after PGE2 injection on day 14", "setting": "[3]; [11]", "result": "significantly blocked; also recorded: dose-relatedly blocked"}]}, {"smiles": "CN(C)C(=N)N=C(N)N", "note": "[metformin]", "values": [{"measurement": "neuropathic allodynia induced by peripheral nerve injury", "setting": "[1]", "result": "resolution of neuropathic allodynia"}, {"measurement": "plantar incision-induced acute hypersensitivity", "setting": "[2]; metformin 30, 100, 150 or 200 mg/kg intra-peritoneal for 4 days (FIG. 2 legend, all doses together)", "result": "significantly blocked"}, {"measurement": "plantar incision-induced acute hypersensitivity", "setting": "[2]; metformin alone, 150 μg intra-peritoneal for 4 days starting 2 days prior to surgery (sub-efficacious dose)", "result": "blunted acute hypersensitivity compared to vehicle treated mice but the effect was not significant"}, {"measurement": "plantar incision-induced acute mechanical hypersensitivity", "setting": "[2]; [12]", "result": "not effective"}, {"measurement": "plantar incision-induced acute mechanical hypersensitivity", "setting": "[2]; [13]", "result": "prevented"}, {"measurement": "wound size vs vehicle treated group", "setting": "[6]", "result": "No differences"}, {"measurement": "wound closure", "setting": "[6]", "result": "completely closed"}, {"measurement": "plantar incision-induced hyperalgesic priming precipitated by PGE2", "setting": "[3]; metformin 30, 100, 150 or 200 mg/kg intra-peritoneal for 4 days (FIG. 3 legend, all doses together)", "result": "significantly blocked"}, {"measurement": "hyperalgesic priming following PGE2 injection on day 14", "setting": "[3]; [12]", "result": "significantly blocked"}, {"measurement": "hyperalgesic priming following PGE2 injection on day 14", "setting": "[3]; [13]", "result": "prevented"}, {"measurement": "translation regulation signaling pathways and nascent protein synthesis in injured nerves neurons", "setting": "[4]", "result": "inhibited"}]}, {"smiles": "Oc1ccc(C=Cc2cc(O)cc(O)c2)cc1", "note": "[resveratrol]", "values": [{"measurement": "incision-mediated mechanical hypersensitivity", "setting": "[7]", "result": "attenuates; also recorded: dose-relatedly reverses"}, {"measurement": "ERK and mTOR signaling in sensory neurons", "setting": "[8]", "result": "profoundly inhibits"}, {"measurement": "bioavailability", "setting": "[9]", "result": "lacks bioavailability"}, {"measurement": "plantar incision-induced acute hypersensitivity", "setting": "[2]; resveratrol alone, 3 μg injected in hind paw around incision on day of surgery and 24 hrs post-surgery (sub-efficacious dose)", "result": "blunted acute hypersensitivity compared to vehicle treated mice but the effect was not significant"}, {"measurement": "plantar incision-induced acute mechanical hypersensitivity", "setting": "[2]; topical resveratrol cream (2 mg/ml in PEG), 100 μg, applied once immediately following incision, vs vehicle", "result": "blunted; also recorded: blunted hypersensitivity though not significant"}, {"measurement": "plantar incision-induced acute mechanical hypersensitivity", "setting": "[2]; topical resveratrol cream, 100 μg, applied twice: immediately following incision and 24 hrs following incision, vs vehicle", "result": "significantly blocked; also recorded: significantly attenuated"}, {"measurement": "wound size vs vehicle treated group", "setting": "[6]", "result": "no differences"}, {"measurement": "wound closure", "setting": "[6]", "result": "completely closed"}, {"measurement": "plantar incision-induced hyperalgesic priming precipitated by PGE2", "setting": "[3]; topical resveratrol 100 μg at the time of incision and 1 day post incision, PGE2 100 ng on day 14", "result": "significantly blocked; also recorded: prevented the development of hyperalgesic priming"}, {"measurement": "plantar incision-induced hyperalgesic priming precipitated by PGE2", "setting": "[3]; topical resveratrol 100 μg once immediately following incision, PGE2 100 ng on day 14", "result": "abolished; also recorded: prevented the development of hyperalgesic priming"}, {"measurement": "hyperalgesic priming induced by incision", "setting": "[10]", "result": "attenuates; also recorded: dose-relatedly reverses"}]}]}
